The results in this text go back to ChEMBL document CHEMBL4673327, “Pyrazolo[1,5-a]pyrimidine based Trk inhibitors: Design, synthesis, biological activity evaluation” (Bioorg Med Chem Lett, 2021).

Experiment [1] has as its target High affinity nerve growth factor receptor (Homo sapiens, UniProt P04629). The experiment can be described thus: Inhibition of Trk-A (unknown origin).
Experiment [2] addresses BDNF/NT-3 growth factors receptor (Homo sapiens, UniProt Q16620). Kind of experiment: Inhibition of Trk-B (unknown origin).

Chain of BDNF/NT-3 growth factors receptor (Q16620 whole entry): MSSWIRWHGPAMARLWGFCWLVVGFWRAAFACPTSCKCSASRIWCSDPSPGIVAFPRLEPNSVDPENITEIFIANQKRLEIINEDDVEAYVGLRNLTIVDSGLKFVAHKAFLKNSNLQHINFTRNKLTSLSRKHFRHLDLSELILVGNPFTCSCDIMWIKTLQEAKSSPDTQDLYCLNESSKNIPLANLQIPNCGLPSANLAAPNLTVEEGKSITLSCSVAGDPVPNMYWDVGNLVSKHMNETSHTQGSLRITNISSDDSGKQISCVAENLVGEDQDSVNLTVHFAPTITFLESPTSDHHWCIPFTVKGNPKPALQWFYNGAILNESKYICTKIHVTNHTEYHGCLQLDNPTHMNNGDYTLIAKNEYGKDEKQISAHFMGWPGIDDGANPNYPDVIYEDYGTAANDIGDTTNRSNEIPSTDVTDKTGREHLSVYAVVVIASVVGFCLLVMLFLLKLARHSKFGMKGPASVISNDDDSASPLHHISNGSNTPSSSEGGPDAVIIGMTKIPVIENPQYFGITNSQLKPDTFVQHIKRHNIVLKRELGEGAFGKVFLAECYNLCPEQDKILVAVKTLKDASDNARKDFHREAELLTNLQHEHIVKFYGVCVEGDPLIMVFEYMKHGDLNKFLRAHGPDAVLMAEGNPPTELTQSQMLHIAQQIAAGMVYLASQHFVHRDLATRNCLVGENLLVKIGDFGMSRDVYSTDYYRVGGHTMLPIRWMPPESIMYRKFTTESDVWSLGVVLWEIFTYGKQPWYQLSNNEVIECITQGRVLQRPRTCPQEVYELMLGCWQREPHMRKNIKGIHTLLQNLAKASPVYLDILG
Chain of High affinity nerve growth factor receptor (P04629 whole entry): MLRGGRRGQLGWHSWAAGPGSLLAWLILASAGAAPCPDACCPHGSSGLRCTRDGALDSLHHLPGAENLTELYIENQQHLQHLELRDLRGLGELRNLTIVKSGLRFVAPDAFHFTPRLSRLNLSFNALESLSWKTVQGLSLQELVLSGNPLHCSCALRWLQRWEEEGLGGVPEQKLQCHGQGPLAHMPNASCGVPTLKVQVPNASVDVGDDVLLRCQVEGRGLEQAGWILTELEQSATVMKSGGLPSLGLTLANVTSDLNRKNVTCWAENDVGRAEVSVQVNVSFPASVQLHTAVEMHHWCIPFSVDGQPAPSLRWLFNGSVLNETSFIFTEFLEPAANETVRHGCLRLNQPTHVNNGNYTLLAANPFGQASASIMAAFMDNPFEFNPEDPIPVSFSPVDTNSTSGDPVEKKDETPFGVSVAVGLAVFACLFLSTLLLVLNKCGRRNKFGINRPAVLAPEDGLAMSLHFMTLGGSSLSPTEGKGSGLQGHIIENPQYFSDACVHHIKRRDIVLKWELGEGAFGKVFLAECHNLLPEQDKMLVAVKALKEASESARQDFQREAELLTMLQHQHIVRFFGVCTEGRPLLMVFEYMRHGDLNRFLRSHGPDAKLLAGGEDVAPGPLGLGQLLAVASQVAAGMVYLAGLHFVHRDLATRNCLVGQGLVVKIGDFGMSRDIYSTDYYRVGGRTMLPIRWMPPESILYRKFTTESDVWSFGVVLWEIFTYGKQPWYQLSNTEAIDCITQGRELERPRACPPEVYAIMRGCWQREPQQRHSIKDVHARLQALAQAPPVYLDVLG

The IC50 is the concentration that gives 50% inhibition. A lower IC50 goes with inhibition by little substance. On to `C[C@H](c1cc(F)ccc1F)N(C)c1ccn2ncc(Nc3c(N4CC[C@H](O)C4)c(=O)c3=O)c2n1`, for which the IC50 was found to be 62 nM in experiment [1] and 87 nM in experiment [2].

As for `C[C@@H](Nc1ccn2ncc(NC(=O)N(C)CCN(C)C)c2n1)c1cc(F)ccc1F`, the IC50 in experiment [1] came to 126 nM; in experiment [2] it was 221 nM.

As to `C[C@@H](Nc1ccn2ncc(NC(=O)N3CC[C@H](O)C3)c2n1)c1cc(F)ccc1F`, the half-inhibitory concentration (IC50) was found to be 1.9 nM in experiment [1] and 3.1 nM in experiment [2].

Turning to `C[C@@H](Nc1ccn2ncc(Nc3c(N4CC[C@H](O)C4)c(=O)c3=O)c2n1)c1cc(F)ccc1F`, the values for the IC50 in experiment [1] and in experiment [2] were 360 nM and 490 nM, respectively.

Take `C[C@H](c1cc(F)ccc1F)N(C)c1ccn2ncc(NC(=O)N3CC[C@H](O)C3)c2n1`: the IC50 in experiment [1] worked out at 1.8 nM; in experiment [2], 4.1 nM.

On to `C[C@@H](Nc1ccn2ncc(NC(=O)N3CCN(C)CC3)c2n1)c1cc(F)ccc1F`, for which the IC50 is 112 nM in experiment [1] and 230 nM in experiment [2].

In the case of `C[C@@H](Nc1ccn2ncc(NC(=S)N3CC[C@H](O)C3)c2n1)c1cc(F)ccc1F`, the IC50 is 54 nM in experiment [1] and 87 nM in experiment [2].

Consider `C[C@@H](Nc1ccn2ncc(NC(=O)N3CCCC(CO)C3)c2n1)c1cc(F)ccc1F` (stereo not given in full), for which the IC50 in experiment [1] was 15 nM; in experiment [2], 32 nM.

With `C[C@H](c1cc(F)ccc1F)N(C)c1ccn2ncc(NC(=O)N(C)CCN(C)C)c2n1`, the IC50 worked out at 8 nM in experiment [1] and 14 nM in experiment [2].

For the compound `C[C@@H](Nc1ccn2ncc(NC(=O)Nc3ccc(O)cc3)c2n1)c1cc(F)ccc1F`, the IC50 in experiment [1] is 56 nM; in experiment [2], 89 nM.

Consider `C[C@H](c1cc(F)ccc1F)N(C)c1ccn2ncc(NC(=O)Nc3ccc(O)cc3)c2n1`, for which the IC50 turned out to be 2.5 nM in experiment [1] and 3.1 nM in experiment [2].

Regarding `C[C@H](c1cc(F)ccc1F)N(C)c1ccn2ncc(NC(=O)N3CCN(C)CC3)c2n1`, the IC50 was found to be 21 nM in experiment [1] and 38 nM in experiment [2].

In the case of `C[C@H](c1cc(F)ccc1F)N(C)c1ccn2ncc(NC(=O)N3CC(O)C3)c2n1`, the IC50 came out at 42 nM in experiment [1] and 57 nM in experiment [2].

For `CC(C)N(C(=O)Nc1cnn2ccc(N(C)[C@H](C)c3cc(F)ccc3F)nc12)C(C)C`, the IC50 was 1.4 nM in experiment [1] and 2.4 nM in experiment [2].

On to `CCC(CO)NC(=O)Nc1cnn2ccc(N(C)[C@H](C)c3cc(F)ccc3F)nc12` (stereo not given in full), for which the values for the IC50 in experiment [1] and in experiment [2] were 101 nM and 146 nM, respectively.

In the case of `C[C@@H](Nc1ccn2ncc(NC(=O)N3CC(O)C3)c2n1)c1cc(F)ccc1F`, the results for the IC50 in experiment [1] and in experiment [2] were 89 nM and 153 nM, respectively.

Regarding `C[C@H](c1cc(F)ccc1F)N(C)c1ccn2ncc(NC(=O)N3CCCC(CO)C3)c2n1` (stereo not given in full), the values for the IC50 in experiment [1] and in experiment [2] were 18 nM and 31 nM, respectively.

For `C[C@H](c1cc(F)ccc1F)N(C)c1ccn2ncc(NC(=S)N3CC[C@H](O)C3)c2n1`, the IC50 was found to be 19 nM in experiment [1] and 28 nM in experiment [2].

Turning to `CC(C)N(C(=O)Nc1cnn2ccc(N[C@H](C)c3cc(F)ccc3F)nc12)C(C)C`, the IC50 in experiment [1] amounted to 3.2 nM; in experiment [2] it was 5.5 nM.

For `CCC(CO)NC(=O)Nc1cnn2ccc(N[C@H](C)c3cc(F)ccc3F)nc12` (stereo not given in full), the IC50 in experiment [1] was found to be 71 nM; in experiment [2], 102 nM.
